Measurements published in article PMC9733060, “Novel alendronate-CGS21680 conjugate reduces bone resorption and induces new bone formation in post-menopausal osteoporosis and inflammatory osteolysis mouse models” (Arthritis Research & Therapy, 2022).
Where two headings read alike, the source gives them in different places. Marks after values point to notes of the source that are not given here.

Columns and labels:
[1] = test system: ovariectomy-induced osteoporotic mice; assay type: in vivo; conditions: μCT, mean ± SEM, 10 mg/kg weekly IP, 9 weeks
[2] = test system: human primary osteoclasts; assay: human primary osteoclast differentiation (RANKL, TRAP staining); assay type: cell-based; conditions: 0.001-10 μM, 7 days, 30 ng/mL RANKL
Experimental: Human bone marrow was obtained from 4 OA patients who underwent hip replacement surgery and all protocols were approved by the NYU School of Medicine’s IRB. Precursor cells were flushed out from femoral head with DMEM media with 10% fetal bovine serum (FBS), and 100 U/ml of penicillin and streptomycin (Lonza, Belgium) in sterile conditions and incubated for 48h non-adherent cells were collected and differentiated to osteoclasts and adherents cell were differentiated to osteoblasts as previously described.
Osteoclast differentiation was assessed by TRAP staining by incubating PFA fixed samples with TRAP buffer (0.1M acetate buffer, 0.3M sodium tartrate, 10mg/ml Naphthol AS-MX phosphate, 0.1% Triton X-100, 0.3mg/ml Fast Red Violet LB (Sigma-Aldrich, St. Louis, MO, USA)) for 10 min. Images were taken in a Leica (Morrisville, NC, USA) inverted microscope.

[3] = cited from earlier work
[4] = test system: UHMWPE-induced osteolytic mice (WT); assay: UHMWPE wear particle-induced osteolysis (OL) in WT mice calvaria; assay type: in vivo, mouse; conditions: doses <10mg/kg/week, data not shown
[5] = test system: human primary osteoclasts; set-up: method as in PMID 23647065, PMID 25573752; conditions: previously demonstrated; cited from earlier work

NCCCC(O)(P(=O)(O)O)P(=O)(O)O [Alendronate, alendronic acid]
BS/BV ([1]; L5 vertebra trabecular bone): 71.26 ± 2.80* 1/mm | BV/TV ([1]; L5 vertebra trabecular bone): 12.34 ± 0.74 % | Tb.N ([1]; L5 vertebra trabecular bone): 2.60 ± 0.21 * 1/mm | Tb.Pf ([1]; L5 vertebra trabecular bone): 13.73 ± 1.23 # 1/mm | Tb.Sp ([1]; L5 vertebra trabecular bone): 0.298 ± 0.012 μm | Tb.Th ([1]; L5 vertebra trabecular bone): 0.047 ± 0.002 μm | BV ([1]; femur cortical bone): 0.442 ± 0.014 * mm^3 | BV/TV ([1]; femur cortical bone): 44.50 ± 1.03 | TV ([1]; femur cortical bone): 0.994 ± 0.042 mm^3 | BS/BV ([1]; femur trabecular bone): 89.18 ± 4.61 1/mm | BV/TV ([1]; femur trabecular bone): 0.771 ± 0.210 % | Tb.N ([1]; femur trabecular bone): 0.164 ± 0.043 # 1/mm | Tb.Pf ([1]; femur trabecular bone): 37.43 ± 2.48 1/mm | Tb.Sp ([1]; femur trabecular bone): 0.702 ± 0.100 # μm | Tb.Th ([1]; femur trabecular bone): 0.0468 ± 0.0014 μm | inhibition of osteoclast differentiation (anti-osteoclastogenic properties) [2]: more potent than AlenP | time for kidneys to excrete the amount not taken up by bone tissues [3]: ≤ 24 h | elimination from bone tissue ([3]; humans): up to 12 years

CCNC(=O)[C@H]1O[C@@H](n2cnc3c(N)nc(NCCc4ccc(CCC(=O)O)cc4)nc32)[C@H](O)[C@@H]1O [CGS21680, 2-[p-(2-carboxyethyl)-phenethylamino]-5'-N-ethylcarboxamido adenosine]
effect on bone density in the affected areas [4]: none of the doses tested <10mg/kg/week had any effect on bone density

Nc1nc(NCCc2ccc(O)cc2)nc2nc(-c3ccco3)nn12 [ZM21385]
effect on osteoclast differentiation [5]: increases osteoclast differentiation
